Common to all, as to assay type: cell-based
Test [1] concerns the target T1, human muscarinic M2 receptor (Homo sapiens, UniProt P08172).
T1 sequence (P08172 1-466): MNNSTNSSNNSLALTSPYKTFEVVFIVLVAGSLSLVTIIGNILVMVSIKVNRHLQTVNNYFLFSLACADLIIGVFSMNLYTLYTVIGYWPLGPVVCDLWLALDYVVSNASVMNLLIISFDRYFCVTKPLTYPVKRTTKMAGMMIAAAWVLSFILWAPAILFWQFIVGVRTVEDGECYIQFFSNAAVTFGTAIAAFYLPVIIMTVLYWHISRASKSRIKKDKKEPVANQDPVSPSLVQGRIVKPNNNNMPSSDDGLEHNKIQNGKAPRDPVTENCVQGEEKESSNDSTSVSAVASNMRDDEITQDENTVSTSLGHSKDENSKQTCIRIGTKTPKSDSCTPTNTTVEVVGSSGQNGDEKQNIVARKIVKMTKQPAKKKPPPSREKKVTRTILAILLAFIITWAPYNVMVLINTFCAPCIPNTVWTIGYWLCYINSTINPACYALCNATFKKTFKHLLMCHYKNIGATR
In words: Alphascreen Surefire phospho-ERK1/2 functional assay, M2. Conditions: for EC50: CHO cells stably expressing human M2, read-out: pEC50 M2 (converted); for Emax: CHO, read-out: % Emax cf. ACh, M2, CHO cells stably expressing human M2, relative to ACh; for % Emax cf. ACh, M2: CHO cells stably expressing human M2, relative to ACh. The method, then: (§1) ERK1/2 phosphorylation is a downstream consequence of both Gq/11 and Gi/o protein coupled receptor activation, making it highly suitable for the assessment of M1, M3 (Gq/11 coupled) and M2, M4 receptors (Gi/o coupled), rather than using different assay formats for different receptor subtypes. CHO cells stably expressing the human muscarinic M1, M2, M3 or M4 receptor were plated (25K/well) onto 96-well tissue culture plates in MEM-alpha+10% dialysed FBS. Once adhered, cells were serum-starved overnight. Agonist stimulation was performed by the addition of 5 μL agonist to the cells for 5 min (37° C.). Media was removed and 50 μL of lysis buffer added. […] Plates were incubated for 2 h with gentle agitation in the dark and then read on a PHERAstar plate reader.
(§2) pEC50 and Emax figures were calculated from the resulting data for each receptor subtype.
Background: Alpha assays give light when donor and acceptor beads are brought close together.

Test [2] has as its target T2, human muscarinic M4 receptor (Homo sapiens, UniProt P08173).
T2 construct: expressed in transfected cells
T2 sequence (P08173 1-479): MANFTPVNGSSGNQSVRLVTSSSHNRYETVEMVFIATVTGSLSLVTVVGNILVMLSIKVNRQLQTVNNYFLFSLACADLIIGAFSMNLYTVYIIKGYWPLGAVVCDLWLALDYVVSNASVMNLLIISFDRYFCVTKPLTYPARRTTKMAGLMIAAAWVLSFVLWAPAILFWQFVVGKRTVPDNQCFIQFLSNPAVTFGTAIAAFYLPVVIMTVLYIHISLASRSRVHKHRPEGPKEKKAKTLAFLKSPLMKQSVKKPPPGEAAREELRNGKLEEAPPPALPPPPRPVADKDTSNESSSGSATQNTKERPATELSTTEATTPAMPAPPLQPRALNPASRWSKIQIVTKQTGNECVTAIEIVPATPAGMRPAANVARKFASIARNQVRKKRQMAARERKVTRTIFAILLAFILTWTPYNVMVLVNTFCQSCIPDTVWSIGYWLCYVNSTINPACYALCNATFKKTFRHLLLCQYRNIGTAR
In words: Alphascreen Surefire phospho-ERK1/2 functional assay, M4. Conditions: for EC50: CHO cells stably expressing human M4, read-out: pEC50 M4 (converted); for % Emax cf. ACh, M4: CHO cells stably expressing human M4, relative to ACh; for Emax: CHO, read-out: % Emax cf. ACh, M4, CHO cells stably expressing human M4, relative to ACh.

Test [3] has as its target T3, human muscarinic M1 receptor (Homo sapiens, UniProt P11229).
T3 sequence (P11229 1-460): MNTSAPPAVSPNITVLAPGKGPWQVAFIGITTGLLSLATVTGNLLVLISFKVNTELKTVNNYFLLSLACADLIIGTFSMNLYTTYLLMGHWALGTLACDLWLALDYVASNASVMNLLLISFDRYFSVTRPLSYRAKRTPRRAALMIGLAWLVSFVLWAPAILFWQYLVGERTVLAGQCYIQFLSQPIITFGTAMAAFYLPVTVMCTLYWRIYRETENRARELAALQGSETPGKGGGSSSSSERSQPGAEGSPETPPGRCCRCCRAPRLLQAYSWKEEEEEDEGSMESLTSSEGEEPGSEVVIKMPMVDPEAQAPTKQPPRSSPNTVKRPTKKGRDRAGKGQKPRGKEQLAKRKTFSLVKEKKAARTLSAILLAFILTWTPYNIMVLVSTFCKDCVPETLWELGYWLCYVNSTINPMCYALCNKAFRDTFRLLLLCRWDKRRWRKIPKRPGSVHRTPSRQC
The test is described as follows: Alphascreen Surefire phospho-ERK1/2 functional assay, M1. Conditions: for EC50: CHO cells stably expressing human M1, read-out: pEC50 M1 (converted); for % Emax cf. ACh, M1: CHO cells stably expressing human M1, relative to ACh; for Emax: CHO, read-out: % Emax cf. ACh, M1, CHO cells stably expressing human M1, relative to ACh.

For test [4], the target named is T4, human muscarinic M3 receptor (Homo sapiens, UniProt P20309).
T4 construct: expressed in transfected cells
The test is described as follows: Alphascreen Surefire phospho-ERK1/2 functional assay, M3. Conditions: for EC50: CHO cells stably expressing human M3, read-out: pEC50 M3 (converted); for Emax: CHO, read-out: % Emax cf. ACh, M3, CHO cells stably expressing human M3, relative to ACh; for % Emax cf. ACh, M3: CHO cells stably expressing human M3, relative to ACh. Here is the method: as §1, §2

A value given as a limit tells only on which side of the number the result lay.

T4 sequence (P20309 whole entry): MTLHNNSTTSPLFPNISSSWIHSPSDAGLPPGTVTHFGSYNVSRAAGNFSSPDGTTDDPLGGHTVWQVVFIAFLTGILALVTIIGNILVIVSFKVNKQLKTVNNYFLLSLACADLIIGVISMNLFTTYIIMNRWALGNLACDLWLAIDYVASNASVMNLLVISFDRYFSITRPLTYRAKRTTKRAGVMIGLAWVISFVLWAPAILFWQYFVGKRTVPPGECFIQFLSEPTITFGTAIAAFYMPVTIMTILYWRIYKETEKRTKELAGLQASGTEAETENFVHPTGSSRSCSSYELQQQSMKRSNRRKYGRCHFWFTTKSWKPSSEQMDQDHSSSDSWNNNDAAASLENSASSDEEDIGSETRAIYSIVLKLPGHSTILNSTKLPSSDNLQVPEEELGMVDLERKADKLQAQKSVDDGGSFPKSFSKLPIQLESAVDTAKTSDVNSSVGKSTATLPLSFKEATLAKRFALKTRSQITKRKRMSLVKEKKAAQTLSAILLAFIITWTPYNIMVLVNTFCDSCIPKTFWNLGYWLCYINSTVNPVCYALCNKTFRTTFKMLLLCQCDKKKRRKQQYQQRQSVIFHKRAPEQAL

Turning to `CCOC(=O)N1C2CCC1CC(N1CCC3(CC1)CNC(=O)O3)C2` (single isomer, unassigned) [Example 2-14 Isomer 2], in test [1], the EC50 is > 20000 nM and the Emax (usually the maximal effect, on the per cent scale that the assay sets) turned out to be 0%. In addition, in test [2], the EC50 is 79.4 nM and the “% Emax cf. ACh, M4” value was 60%. In test [3], the EC50 is 39.8 nM and the “% Emax cf. ACh, M1” value is given as 92%. Moreover, in test [4], the EC50 is > 20000 nM and the maximal response (Emax) was determined as 0%.

Regarding `CCOC(=O)N1C2CCC1CC(N1CCC3(CC1)OC(=O)NC3CC)C2` (single isomer, unassigned) [Example 2-16 Isomer 1], the EC50 in test [1] was > 20000 nM; in test [2], 79.4 nM; in test [3], 50.1 nM; in test [4], > 20000 nM. In addition, the maximal effect (Emax) in test [1] came out at 3%; in test [4], 9%. Further, the “% Emax cf. ACh, M4” value in test [2] (listed as 2-16 Isomer 1) stood at 19%. Besides, in test [3] (listed as 2-16 Isomer 1), the “% Emax cf. ACh, M1” value is listed as 36%.

Take `CCOC(=O)N1C2CCC1CC(N1CCC3(CC1)OC(=O)NC3C(C)C)C2` (single isomer, unassigned) [Example 2-17 Isomer 1]: the EC50 is > 20000 nM in test [1], 20 nM in test [2], 31.6 nM in test [3] and > 20000 nM in test [4]. Besides, the Emax in test [1] was found to be 2%. Further, in test [2] (listed as 2-17 Isomer 1), the “% Emax cf. ACh, M4” value is 25%. Also, the “% Emax cf. ACh, M1” value in test [3] (listed as 2-17 Isomer 1) was 58%. Also, the “% Emax cf. ACh, M3” value in test [4] (listed as 2-17 Isomer 1) was 51%.

On to `CCOC(=O)N1C2CCC1CC(N1CCC3(CC1)OC(=O)NC3C(C)C)C2` (single isomer, unassigned) [Example 2-17 Isomer 2], for which, in test [1], the “% Emax cf. ACh, M2” value amounted to 3%. For the same compound, the EC50 is 100 nM in test [2] and 200 nM in test [3]. In addition, the “% Emax cf. ACh, M4” value in test [2] (listed as 2-17 Isomer 2) is 72%. In test [3] (listed as 2-17 Isomer 2), the “% Emax cf. ACh, M1” value is 117%. Further, in test [4] (listed as 2-17 Isomer 2), the “% Emax cf. ACh, M3” value is 12%.

For the compound `CCCN1CC2(CCN(C3CC4CCC(C3)N4C(=O)OCC)CC2)CC1=O` (single isomer, unassigned) [Example 2-25 Isomer 2, ethyl 3-(3-oxo-2-propyl-2,8-diazaspiro[4.5]dec-8-yl)-8-azabicyclo[3.2.1]octane-8-carboxylate], the EC50 was > 20000 nM in test [1], 251 nM in test [2], 251 nM in test [3] and > 20000 nM in test [4]. For the same compound, the maximal response (Emax) in test [1] stood at 15%; in test [2] it was 25%; in test [3], 53%; in test [4] it was 12%.

For `[2H]C([2H])(C)OC(=O)N1C2CCC1CC(N1CCC3(CC1)CNC(=O)C3)C2` (single isomer, unassigned) [Example 2-30 Isomer 2, (1,1-^2H2)ethyl 3-(3-oxo-2,8-diazaspiro[4.5]dec-8-yl)-8-azabicyclo[3.2.1]octane-8-carboxylate], the EC50 is > 20000 nM in test [1], 79.4 nM in test [2], 31.6 nM in test [3] and > 20000 nM in test [4]. For the same compound, the maximal effect (Emax) in test [1] came out at 9%; in test [4], 16%. The “% Emax cf. ACh, M4” value in test [2] worked out at 29%. Further, the “% Emax cf. ACh, M1” value in test [3] (listed as 2-30 Isomer 2) was found to be 66%.

For `[2H]C([2H])([2H])COC(=O)N1C2CCC1CC(N1CCC3(CC1)CNC(=O)C3)C2` (single isomer, unassigned) [Example 2-31 Isomer 2], the EC50 was > 20000 nM in test [1], 25.1 nM in test [2], 25.1 nM in test [3] and > 20000 nM in test [4]. For the same compound, the results for the Emax in test [1] and in test [4] were 11% and 8%, respectively. In addition, the “% Emax cf. ACh, M4” value in test [2] (listed as 2-31 Isomer 2) was found to be 26%. The “% Emax cf. ACh, M1” value in test [3] (listed as 2-31 Isomer 2) came to 76%.

With `[2H]C([2H])([2H])C([2H])([2H])OC(=O)N1C2CCC1CC(N1CCC3(CC1)CNC(=O)C3)C2` (single isomer, unassigned) [Example 2-32 Isomer 1], the EC50 in test [1] is > 20000 nM; in test [2], 126 nM; in test [3], 79.4 nM; in test [4], > 20000 nM. Besides, the figures for the Emax in test [1], in test [2] and in test [3] were 16%, 40% and 92%, respectively. Moreover, the “% Emax cf. ACh, M3” value in test [4] (listed as 2-32 Isomer 1) is 10%.

Consider `[2H]C([2H])([2H])C([2H])([2H])OC(=O)N1C2CCC1CC(N1CCC3(CC1)CNC(=O)C3)C2` (single isomer, unassigned) [Example 2-32 Isomer 2], for which the “% Emax cf. ACh, M2” value in test [1] is 15%. Moreover, in test [2], the EC50 is 50.1 nM and the “% Emax cf. ACh, M4” value stood at 48%. Further, in test [3], the EC50 is 31.6 nM and the “% Emax cf. ACh, M1” value is on record as 77%. Moreover, the “% Emax cf. ACh, M3” value in test [4] (listed as 2-32 Isomer 2) is 1%.

In the case of `CCOC(=O)N1CC2CCC1CC2N1CCC2(CC1)CNC(=O)C2` (single isomer, unassigned) [Example 3-1 Isomer 1, ethyl 5-(3-oxo-2,8-diazaspiro[4.5]dec-8-yl)-2-azabicyclo[2.2.2]octane-2-carboxylate], the EC50 in test [1] was 10 nM; in test [2] it was 3.98 nM; in test [3], 1.26 nM; in test [4], > 20000 nM. The “% Emax cf. ACh, M2” value in test [1] (listed as 3-1 Isomer 1) is given as 63%. Further, in test [2] (listed as 3-1 Isomer 1), the “% Emax cf. ACh, M4” value amounted to 61%. The “% Emax cf. ACh, M1” value in test [3] (listed as 3-1 Isomer 1) stood at 111%. Further, in test [4] (listed as 3-1 Isomer 1), the “% Emax cf. ACh, M3” value was 6%.

For the origin of these results see patent US12202843B2, “Muscarinic receptor agonists” (Nxera Pharma UK Limited, priority 2014, dated 2025).
